Source: patent US8614194B1, “Anionic cell penetrating peptide and its use for intracellular delivery” (Kaohsiung Medical University, priority 2012, dated 2013)
No end group written: not given here.

What was measured:
Assay type in all cases: cell-based, human
HeLa cells [1] = assay: Fluorescence microscopy of translocation into cells; conditions: FITC-labeled, 10 μM, 30 minutes, 37° C., FIG. 4
Method: (§1) Cells are treated with 10 μM test compound for 30 minutes at 37° C., washed using PBS, and then treated with 0.5% trypsin. Cells are labeled with 5 μg/ml Hoechst 33342 (Invitrogen) and PKH26-GL (Sigma) respectively for nuclei and membrane labeling. Standard protocols are followed according to the kit instructions. Cells are lastly suspended again in PBS for fluorescence images. Fluorescence images are captured by Olympus, CellR and Olympus FV1000 confocal microscope using glass-bottom culture slides with excitation by 488 nm (FITC-labeled peptide) laser line.

hADSCs = assay: as above; conditions: FITC-labeled, 10 μM, 30 minutes, 37° C., FIG. 5
Method: as §1

HeLa cells [2] = assay: Endocytosis inhibition analysis (uptake with inhibitors); conditions: 10 μM, 37° C., 30 minutes, inhibitors NaN3 and 2DG, EIPA, NaClO3, FIG. 8(A)
Method: For inhibition of endocytosis, HeLa cells are treated with 200 mM sodium azide (NaN3; Sigma) and 2-deoxy-D-glucose (2DG; Sigma) for 1 hour to deplete intracellular ATP pools and influence cell metabolism. hADSCs are treated with 10 mM NaN3 and 2DG for 1 h with the same purpose. For inhibition of macropinosome formation, HeLa cells and hADSCs are treated with 3 mM 5-(N-ethyl-N-isopropyl) amiloride (EIPA, Sigma) for 10 minutes. For inhibition of proteoglycan sulfation, HeLa cells and hADSCs are treated with 600 mM sodium chlorate (NaClO3, Sigma) for 2 days. After this treatment of inhibitors, cells are treated with 10 μM test compound (200 μl), and then incubated at 37° C. for 30 minutes. 10^4 cells in 0.1 ml medium are seeded into each well of a 24-well plate, and then trypsin (200 μl) is added into each well. Cells are transferred to a microtube and incubated for 5 minutes. Cells are processed for flow cytometry as described above after being added with 200 μl of medium and washed with PBS.

6-aminocaproic acid-R7 [ACP-R7]
translocation into cells (HeLa cells [1]): crosses into HeLa cells
translocation into cells (hADSCs): crosses into ADSCs
route of internalization, uptake combined with inhibitors (HeLa cells [2]): internalized by macropinocytosis, endocytosis, and direct translocation resulted from proteoglycan sulfation

AAAADD [A4D2, four alanine residues linked to the N terminal of two aspartate residues]
translocation into cells (hADSCs): crosses into ADSCs

AADDDD [A2D4, two alanine residues linked to the N terminal of four aspartate residues]
translocation into cells (hADSCs): crosses into ADSCs

DDDDDD [D6, peptide of six aspartate residues]
translocation into cells (hADSCs): crosses into ADSCs

KD6K-simvastatin: peptide KDDDDDDK carrying simvastatin and PEG500; Lys capped by acetic anhydride or FITC (also: carries simvastatin and PEG500, Lys capped by acetyl or FITC)
translocation into cells (hADSCs): crosses into ADSCs

KDDDDDD [KD6, one lysine residue linked to the N terminal of six aspartate residues]
translocation into cells (hADSCs): crosses into ADSCs
